One test relates to T98 cells. Briefly: Cell viability assay (PrestoBlue, 5 d) in T98 glioma cells. The test is classed as cell-based. The following applies: library screen, 5 d treatment, mean of three independent experiments in triplicates, read-out: EC50 T98 ± SEM. The procedure:
(§1) The antiproliferative activity of a total of 100 compounds was tested against U87 and T98 glioma cell lines, using TMZ[3] and the Topoisomerase I inhibitor SN-38[18] as positive controls. Cells were treated with the library members for 5 d at three different concentrations (3, 30 and 300 µM) and cell viability determined using the PrestoBlue reagent. Half-maximal effective concentration (EC50) values were calculated from the corresponding dose-response curves and plotted in Fig. 2a as a heatmap to facilitate data analysis, with black meaning no activity and dark to light green to yellow transitions indicating decreasing EC50 values (=increasing potencies). Table 1 of the Suppl. Data contains the corresponding EC50 values ± SEM.
(§2) INK128 and SN-38 were used as positive controls. […] Structurally, these derivatives differed in the size of the alkyl group of the N1 position and the presence or absence of an oxygen atom in that moiety (see Suppl. Data).
(§3) U87 and T98 cells (ATCC) were cultured in DMEM (Gibco), supplemented with 10% (v/v) FBS (Gibco) and 2 mM L-Glutamine (Gibco) in a standard incubator (95% humidity, 5% CO2), and subcultured twice per week through trypsinization. G317 patient-derived glioma cells were established by the Glioma Cellular Genetics Resource (gcgr.org.uk) funded by Cancer Research UK. Ethics approval for use of patient-derived cells and early access confirmation to reagents from the Glioma Cellular Genetics Resource assured that all ethical issues according to UK legislation are fulfilled. G317 were cultured in DMEM/HAMS-F12 (Sigma) supplemented with 1.5 g L^−1 D-(+)-Glucose (Sigma), MEM non-essential aminoacids (Gibco), 0.015% (w/v) Penicillin-Streptomycin (Gibco), 0.012% (w/v) BSA (Gibco), 0.1 mM β-mercaptoethanol (Gibco), B27 (Gibco) and N2 supplements (Gibco). Cells were detached using accutase solution (Sigma) and subcultured once per week. Before adding to the cells, medium was supplemented with 10 ng ml^−1 mouse EGF (Preprotech), 10 ng ml^−1 human FGF (Preprotech), and 1 µg ml^−1 Laminin (Sigma).
(§4) 1 × 10^3 U87 cells/well, 5 × 10^2 T98 cells/well, 1 × 10^4 G317 cells/well, 1 × 10^4 HBVP cells/well and 1 × 10^4 bEnd3 cells/well were seeded in 96-well plates. After 48 h in culture, cells were treated with the inhibitors for 5 d. For GI50 determination, the viability of a triplicate sample of each experiment before treatment was measured with the PrestoBlue Reagent (Invitrogen), to establish a basepoint 0% of growth. […] ZIP Synergy scores were obtained with Synergy finder.[22] Viability percentage, EC50 and GI50 values were obtained using GraphPad Prism version 8.0.0 for Windows, GraphPad Software, San Diego, California USA, www.graphpad.com.

The test system of a further test is U87 cells. In words: Cell viability assay (PrestoBlue, 5 d) in U87 glioma cells. The test is classed as cell-based. The following applies: library screen, 5 d treatment, mean of three independent experiments in triplicates, read-out: EC50 U87 ± SEM. The procedure:
as §1, §2, §3, §4

Like-named read-outs stand apart in the source and are kept apart here.

In the case of `COc1ccc(-c2nn(CC3CCCC3)c3ncnc(N)c23)cc1OC` [eSM204], the concentration giving a half-maximal response (EC50) (in general, the concentration needed to bring the measured effect to its halfway point) was found to be 6.58 ± 1.47 µM in the test with T98 cells and 8.56 ± 0.564 µM in the test on U87 cells.

Consider `COc1cc(-c2nn(CCN3CCC(N(C)C)CC3)c3ncnc(N)c23)ccc1NC(=O)CCc1ccccc1` [eCF531], for which the EC50 in the test on T98 cells was found to be 11.1 ± 1.1 µM; with U87 cells, 22.6 ± 5.38 µM.

Turning to `CNc1ncc2c(-c3ccc(N4CCNCC4)nc3)nn(Cc3cn(-c4ccccc4)nn3)c2n1` [eSM139], the results for the concentration for a half-maximal effect (EC50) in the test with T98 cells and in the test with U87 cells were 8.6 ± 3.39 µM and 6.09 ± 1.39 µM, respectively.

Regarding `CCN1CCN(c2ccc(-c3nn(Cc4cn(Cc5ccccc5)nn4)c4nc(NC)ncc34)cn2)CC1` [eSM155], the EC50 in the test with T98 cells and in the test with U87 cells was more than 30 µM in each case.

Take `CN(C)C1CCN(CCn2nc(-c3ccc(NC(=O)OC(C)(C)C)c(O)c3)c3c(N)ncnc32)CC1` [eCF562]: the concentration giving a half-maximal response (EC50) in the test with T98 cells and in the test with U87 cells was more than 30 µM each time.

As for `COc1cc(-c2nn(CCN3CCC(N(C)C)CC3)c3ncnc(N)c23)ccc1NC(=O)N(C)C(C)(C)C` [eCF608], the EC50 turned out to be 14.4 ± 7.53 µM in the test with T98 cells and 21.1 ± 3.02 µM with U87 cells.

As for `CNc1ncc2c(-c3ccc(N4CCN(C(=O)C(C)(C)C)CC4)nc3)nn(CC3CCCC3)c2n1` [eSM150], the values for the EC50 with T98 cells and in the test with U87 cells were 10.1 ± 3 µM and 22.7 ± 9.53 µM, respectively.

As for `CNc1ncc2c(-c3ccc(N4CCNCC4)nc3)nn(CC3CCCC3)c2n1` [eSM107], the EC50 is 2.42 ± 0.504 µM in the test on T98 cells and 3.33 ± 0.166 µM with U87 cells.

In the case of `CCOC(Cn1nc(-c2ccc(OC)c(OC)c2)c2c(N)ncnc21)OCC` [eCF204], the EC50 in the test on T98 cells and with U87 cells was more than 30 µM in each case.

Turning to `COc1cc(-c2nn(CCN3CCC(N4CCCCC4)CC3)c3ncnc(N)c23)ccc1NC(=O)OC(C)(C)C` [eCF519], the EC50 stood at 3.14 ± 0.331 µM in the test with T98 cells and 17 ± 2.37 µM in the test with U87 cells.

As for `CNc1ncc2c(-c3ccc(-c4ccccc4)cc3)nn(CC3OCCO3)c2n1` [eSM111], the EC50 in the test on T98 cells and in the test with U87 cells was more than 30 µM throughout.

Take `COc1cc(-c2nn(CCN3CCC(N(C)C)CC3)c3ncnc(N)c23)ccc1NC(=O)CC(C)(C)C` [eCF526]: the 50% effective concentration (EC50) in the test on T98 cells and in the test on U87 cells was more than 30 µM in each case.

`COc1cc(-c2nn(CCN3CCC(N(C)C)CC3)c3ncnc(N)c23)ccc1NCc1ccccc1` [eCF575]: the EC50 in the test with T98 cells and in the test with U87 cells was more than 30 µM throughout.

With `COc1cc(-c2nn(CCN3CCCC(N(C)C)C3)c3ncnc(N)c23)ccc1NC(=O)OC(C)(C)C` (centres unmarked) [eCF603], the EC50 in the test on T98 cells and in the test on U87 cells was more than 30 µM each time.

Consider `Cc1ccc(-c2nn(CCN3CCC(N(C)C)CC3)c3ncnc(N)c23)cc1` [eCF109], for which the figures for the EC50 in the test on T98 cells and in the test on U87 cells were 26.3 ± 7.3 µM and more than 30 µM, respectively.

`CNc1ncc2c(-c3cnc4[nH]ccc4c3)nn(Cc3cn(Cc4ccccc4)nn3)c2n1` [eSM145]: the values for the EC50 in the test with T98 cells and in the test on U87 cells were 9.11 ± 1.67 µM and 14.2 ± 0.557 µM, respectively.

As to `CNc1ncc2c(-c3ccc(N4CCNCC4)nc3)nn(Cc3cn(Cc4ccccc4)nn3)c2n1` [eSM119], the EC50 came out at 11.3 ± 0.882 µM in the test on T98 cells and 9.73 ± 1.22 µM in the test with U87 cells.

On to `COc1cc(-c2nn(CCN3CCC(N(C)C)CC3)c3ncnc(N)c23)ccc1NC(=O)Oc1ccccc1` [eCF535], for which the EC50 in the test on T98 cells is 16.7 ± 2.8 µM; with U87 cells it was more than 30 µM.

As to `CNc1ncc2c(-c3ccc(F)cc3)nn(CC3OCCO3)c2n1` [eSM113], the half-maximal effective concentration (EC50) with T98 cells and in the test on U87 cells was more than 30 µM in each case.

Regarding `COc1ccc(-c2nn(CCN3CCC(CN(C)C)CC3)c3ncnc(N)c23)cc1OC` [eCF224], the concentration for a half-maximal effect (EC50) with T98 cells and in the test with U87 cells was more than 30 µM each time.

Turning to `CNc1ncc2c(-c3ccc(N4CCN(C(=O)NC(C)(C)C)CC4)nc3)nn(CC3CCCC3)c2n1` [eSM149], the concentration for a half-maximal effect (EC50) in the test on T98 cells and in the test with U87 cells was more than 30 µM throughout.

`COc1cc(-c2nn(CCN3CCC(N(C)C)CC3)c3ncnc(N)c23)ccc1NC(=O)NC(C)(C)C` [eCF537]: the EC50 was 17.6 ± 3.24 µM in the test on T98 cells and more than 30 µM with U87 cells.

For the compound `Cc1ccc(-c2nn(CCN3CCN(CCO)CC3)c3ncnc(N)c23)cc1` [eCF104], the EC50 with T98 cells and with U87 cells was more than 30 µM each time.

For the compound `CNc1ncc2c(-c3ccc(OC)c(OC)c3)nn(CC3CCCC3)c2n1` [eSM104], the figures for the EC50 in the test with T98 cells and with U87 cells were 17.5 ± 2.14 µM and more than 30 µM, respectively.

Regarding `CNc1ncc2c(-c3ccc(N4CCN(C)CC4)cc3)nn(CC3CCCC3)c2n1` [eSM156], the EC50 with T98 cells turned out to be 1.77 ± 0.865 µM; in the test on U87 cells, 8 ± 3.32 µM.

Consider `Cc1ccc(-c2nn(CCN3CCC(O)CC3)c3ncnc(N)c23)cc1` [eCF106], for which the EC50 in the test with T98 cells and in the test on U87 cells was more than 30 µM throughout.

As to `CNc1ncc2c(-c3ccc(N4CCNCC4)nc3)nn(CC3OCCO3)c2n1` [eSM112], the EC50 with T98 cells came out at 9.26 ± 0.465 µM; in the test on U87 cells, 21.3 ± 2.35 µM.

In the case of `Cc1ccc(-c2nn(CCN3CCC(C)CC3)c3ncnc(N)c23)cc1` [eCF110], the 50% effective concentration (EC50) in the test with T98 cells and in the test with U87 cells was more than 30 µM throughout.

For the compound `CCNc1ncc2c(-c3ccc(N4CCNCC4)nc3)nn(CC3OCCO3)c2n1` [eSM133], the 50% effective concentration (EC50) in the test on T98 cells was 15.6 ± 2.75 µM; in the test with U87 cells, more than 30 µM.

On to `COc1cc(-c2nn(CCN3CCC(N(C)C)CC3)c3ncnc(N)c23)ccc1NC(=O)OC(C)(C)C` [eCF581], for which the EC50 in the test with T98 cells and with U87 cells was more than 30 µM throughout.

`NC(=O)c1ccc(-c2nn(CC3CCCC3)c3ncnc(N)c23)cc1` [eSM207]: the EC50 was 21.3 ± 3.28 µM with T98 cells and 19.9 ± 6.03 µM in the test on U87 cells.

For the compound `COc1cc(-c2nn(CCN3CCC(N4CCCC4)CC3)c3ncnc(N)c23)ccc1NC(=O)OC(C)(C)C` [eCF598], the EC50 with T98 cells is 16.4 ± 9.53 µM; in the test on U87 cells, more than 30 µM.

Take `Cc1ccc(-c2nn(CCN3CCN(C)CC3)c3ncnc(N)c23)cc1` [eCF103]: the EC50 in the test with T98 cells and in the test on U87 cells was more than 30 µM each time.

Consider `Cc1ccc(-c2nn(CCN3CCC(CN(C)C)CC3)c3ncnc(N)c23)cc1` [eCF112], for which the EC50 with T98 cells turned out to be 6.28 ± 1.91 µM; in the test with U87 cells it was 6.63 ± 1.44 µM.

Turning to `CN(C)C1CCN(CCn2nc(-c3ccc4c(ccn4C(=O)OC(C)(C)C)c3)c3c(N)ncnc32)CC1` [eCF548], the EC50 in the test with T98 cells stood at 6.87 ± 1.77 µM; in the test with U87 cells, 7.18 ± 1.5 µM.

In the case of `CNc1ncc2c(-c3ccc(N4CCN(C)CC4)nc3)nn(Cc3cn(Cc4ccccc4)nn3)c2n1` [eSM134], the EC50 in the test with T98 cells stood at 18.8 ± 3.57 µM; in the test with U87 cells it was 18.9 ± 5.27 µM.

Take `CCOC(Cn1nc(-c2cccc(NC(=O)OC(C)(C)C)c2)c2c(N)ncnc21)OCC` [eCF207]: the EC50 with T98 cells and with U87 cells was more than 30 µM in each case.

`CN(C)C1CCN(CCn2nc(-c3ccc(NCc4ccccn4)cc3)c3c(N)ncnc32)CC1` [eCF576]: the EC50 with T98 cells and with U87 cells was more than 30 µM throughout.

Consider `Cc1ccc(-c2nn(CCN3CCC(CO)CC3)c3ncnc(N)c23)cc1` [eCF107], for which the EC50 in the test with T98 cells and in the test with U87 cells was more than 30 µM throughout.

With `COc1ccc(-c2nn(CC3CCCC3)c3ncnc(N)c23)cc1` [eSM205], the EC50 with T98 cells was determined as 11.9 ± 6.5 µM; with U87 cells, 14.3 ± 6.14 µM.

For the compound `CN(C)CC1CCN(CCn2nc(-c3ccc4ncccc4c3)c3c(N)ncnc32)CC1` [eCF223], the EC50 in the test with T98 cells and in the test on U87 cells was more than 30 µM throughout.

Consider `COc1cc(-c2nn(CCN3CCC(N(C)C)CC3)c3ncnc(N)c23)ccc1NC(=O)OC(C)(C)C` [eCF506], for which the EC50 in the test on T98 cells (Homo sapiens, T98, 120 h) came to 9.97 ± 4.88 µM; with U87 cells (Homo sapiens, U-87 MG, 120 h) it was 13.6 ± 0.809 µM.

On to `Cc1ccc(-c2nn(CCN3CCOCC3)c3ncnc(N)c23)cc1` [eCF102], for which the EC50 in the test with T98 cells and in the test on U87 cells was more than 30 µM throughout.
